Measurements: patent publication US12435128B2, “Method for predicting therapeutic effect of LSD1 inhibitor based on expression of INSM1” (TAIHO PHARMACEUTICAL CO., LTD., priority 2017, dated 2025)
Counter-ions that a name gives are not always drawn.

Tests used:
[1] = tested on: HEL cells (human acute myelocytic leukemia cell lines); test: Cell-growth inhibition test: HEL cells; type: cell-based; settings: read-out: IC50 (nM), Cell-Growth Inhibition Test: HEL Cells
[2] = tested on: NCI-H1417 cells (human small-cell lung cancer cell lines); test: Cell-growth inhibition test: NCI-H1417 cells; type: cell-based; settings: read-out: IC50 (nM), Cell-Growth Inhibition Test: NCI-H1417 Cells
Method: (§1) Under the following conditions, an in vitro cell-growth inhibition test was performed with respect to HEL cells (human acute myelocytic leukemia cell lines), NCI-H1417 cells (human small-cell lung cancer cell lines), and NCI-H146 cells (human small-cell lung cancer cell lines).
(§2) The cells with the Example compound or with dimethylsulfoxide alone were cultured at 37° C. in a 5% carbon-dioxide-containing incubator for 5 days (HEL cells) or 10 days (NCI-H1417 cells and NCI-H146 cells). After culture, the plate was allowed to stand at room temperature for 30 minutes, and 100 μL of the supernatant was removed from each well to leave 100 μL of the cell culture solution. To each well containing the remaining 100 μL of the cell culture solution, the same amount of CellTiter-Glo 2.0 Assay (Promega, Cat #: G9242) was added. The microplate was shaken with a plate mixer for 1 minute and then allowed to stand in a dark place for 10 minutes. Thereafter, the luminescence intensity of viable cells in each well was measured using a microplate reader (PerkinElmer, EnSpire). […] Cell growth rate(%)=T/C×100 • T: The luminescence intensity in a well to which the test compound was added (count per second) • C: The luminescence intensity in a well to which dimethylsulfoxide alone was added (count per second)

[3] = tested on: NCI-H146 cells (human small-cell lung cancer cell lines); test: Cell-growth inhibition test: NCI-H146 cells; type: cell-based; settings: NCI-H146 cells; read-out: IC50 (nM), Cell-Growth Inhibition Test: NCI-H146 Cells
Method: as §1, §2

NCI-H1417 cells = test: Cell-growth inhibitory effects of LSD1 inhibitor on sensitive strain NCI-H1417; type: cell-based, human; settings: 10 days
Method: (§3) As a medium, 10% FBS-containing RPMI1640 was used. Cell lines were seeded in a 96-well flat-bottom microplate in an amount of 120 μL, and a well containing 160 μL of medium alone was also prepared for background measurement. […] After culture, the microplate was allowed to stand at room temperature for 30 minutes. To 160 μL of the cell culture solution or the medium containing no cells, 140 μL of CellTiter-Glo 2.0 Assay (Promega) was added. After the microplate was allowed to stand at room temperature for 10 minutes, the luminescence intensity of viable cells in each well was measured using a microplate reader (PerkinElmer, EnSpire). The IC35 of each drug was obtained in the same manner as above.

DMS79 cells = test: Cell-growth inhibitory effects of LSD1 inhibitor on non-sensitive strain DMS79; type: cell-based, human; settings: 10 days
Method: as §3

[4] = tested on: NCI-H146 cells (human small-cell lung cancer cell lines); test: Antitumor effect test using NCI-H146 cells subcutaneously implanted into mice (T/C %); type: in vivo; settings: NCI-H146 in BALB/cAJcl-nu/nu mice
Method: To 5 mice in each group, a vehicle (0.5% hydroxymethylpropylcellulose containing 0.1 N HCL) or each Example compound was orally administered. […] The major axis and the minor axis of each tumor were measured twice a week with an electric caliper to calculate the tumor volume (TV). According to the tumor volumes thus obtained, a relative tumor volume (RTV) and a relative tumor volume change (T/C (%)) were calculated. The TV, RTV, and T/C (%) were calculated using the following equations. Tumor volume TV(mm^3)=(major axis, mm)×(minor axis, mm)×(minor axis, mm)/2 Relative tumor volume RTV=TV/(TV on the grouping day) T/C(%)=(average RTV of administration group)/(average RTV of vehicle administration group)×100.
The final measurement day was the day following the final administration day.

| Compound | IC50 [1] | IC50 [2] | IC50 [3] | growth inhibitory effects (NCI-H1417 cells) | growth inhibitory effects (DMS79 cells) | T/C (%) ([4]; 40 mg/kg orally once a day, 28 consecutive days) | T/C (%) ([4]; 25 mg/kg orally once a day, 21 consecutive days) |
| --- | --- | --- | --- | --- | --- | --- | --- |
| CCC(O)(CC)Cn1nnc2cc(-c3ccc(C(=O)N4[C@@H]5CC[C@H]4[C@@H](N)C5)cc3-c3ccc(C#N)c(F)c3)c(F)c(F)c21 (single isomer, unassigned) [Example 214] | 0.44 nM | 0.47 nM | 2.58 nM | showed growth inhibitory effects | did not show growth inhibitory effects | – | – |
| CC(C)(O)Cn1nnc2cc(-c3ccc(C(=O)N4[C@@H]5CC[C@H]4C[C@@H](N)C5)cc3-c3ccc(C#N)c(F)c3)c(F)c(F)c21 [Example 161, 5′-((3-endo)-3-amino-8-azabicyclo[3.2.1]octane-8-carbonyl)-2′-(6,7-difluoro-1-(2-hydroxy-2-methylpropyl)-1H-benzo[d][1,2,3]triazol-5-yl)-3-fluoro-[1,1′-biphenyl]-4-carbonitrile] | 5.68 nM | – | – | – | – | 14% | – |
| CC(C)(O)Cn1nnc2cc(-c3ccc(CN4[C@@H]5CC[C@H]4[C@@H](N)C5)cc3-c3ccc(C#N)c(F)c3)c(F)c(F)c21.Cl.Cl (single isomer, unassigned) [Example 285] | – | – | – | showed growth inhibitory effects | did not show growth inhibitory effects | – | – |
| CC(C)(O)Cc1ccc(-c2ccc(C(=O)N3[C@@H]4CC[C@H]3C[C@@H](N)C4)cc2-c2ccc(C#N)c(F)c2)c(F)c1 [Example 41, 4-[5-[(3-endo)-3-amino-8-azabicyclo[3.2.1]octane-8-carbonyl]-2-[2-fluoro-4-(2-hydroxy-2-methyl-propyl)phenyl]phenyl]-2-fluoro-benzonitrile] | – | – | – | showed growth inhibitory effects | did not show growth inhibitory effects | – | 19% |
| N#Cc1ccc(-c2cc(CN3[C@@H]4CC[C@H]3[C@@H](N)C4)ccc2-c2cc3nnn(CC4(O)CCC4)c3c(Cl)c2F)cc1F (single isomer, unassigned) [Example 286, dihydrochloride] | 0.036 nM | 0.083 nM | 0.17 nM | – | – | – | – |
